According to article PMC11817060, “Optimizing Therapeutics for Intratumoral Cancer Treatments: Antiproliferative Vanadium Complexes in Glioblastoma” (International Journal of Molecular Sciences, 2025):
Read-outs that look alike come from different tables or passages of the source.

Experiments:
[1] = system: T98G (glioblastoma multiforme) cells; assay: MTT cell viability assay (72 h), fresh or aged solutions, T98G; format: cell-based, human; conditions: 72 h incubation
Experimental: (§1) For viability experiments, the cells were seeded in 96-well plates at an initial density of 1.0 × 10^3 (T98G) or 3.0 × 10^3 (SVG p12) viable cells per well in 100 μL medium and left to attach overnight.
(§2) For all cell assays, freshly prepared stock solutions of the V(V) complexes (10 mM in DMSO) were used. […] The same concentration of DMSO was used in the control experiments. Stock solutions of Na3VO4 (10 mM in MilliQ H2O) and cisplatin (1.0 mM in phosphate-buffered saline) were prepared on the day of the experiments. […] The treatment complexes were applied in a series of nine two-fold dilutions, starting from 100 μM V, plus the vehicle control. Each treatment was composed of six replicate wells with cells and two background wells without cells but containing the same compounds. […] (1.0 mg/mL in complete medium), and incubation was continued for 4–6 h. The medium was then removed, the blue formazan crystals were dissolved in 0.10 mL per well of DMSO, and the absorbance at 600 nm was measured with a Victor V3 plate reader.

[2] = system: SVG p12 (immortalized non-cancer brain astroglia) cells; assay: MTT cell viability assay (72 h), fresh or aged solutions, SVG p12; format: cell-based, human; conditions: for IC50: 72 h incubation
Experimental: as §1, §2

[3] = Homo sapiens, T98G, pre-incubated with medium for 24 h at 310 K before addition to cells (B), read-out: IC50 (T98G), aged solutions (B)

OCCNCC/N=C/c1ccccc1O [Compound H2SHED, N-(salicylideneaminato)-N′-(2-hydroxyethyl)-1,2-ethanediamine]
IC50 [1, 3]: > 100 µM

CC(C)c1cc(O)c(O)c(C(C)C)c1 [DIPCATH2, 3,5-di-iso-propyl-catechol]
IC50 [1, 3]: 54 ± 8 µM

CC(C)(C)c1cc(O)c(O)c(C(C)(C)C)c1 [DTBH2, 3,5-di-tert-butylcatechol]
IC50 [1, 3]: 26 ± 3 µM

[Na+].[Na+].[Na+].[O]=[V]([O-])([O-])[O-] [Na3VO4]
IC50 ([1]; pre-incubated with medium for 24 h at 310 K before addition to cells (B), read-out: IC50 (T98G), aged solutions (B)): 40 ± 3 µM
IC50 ([2]; pre-incubated with medium for 24 h at 310 K before addition to cells (B), read-out: IC50 (SVG p12), aged solutions (B)): 48 ± 4 µM
Effect of subtoxic V(V) concentrations on cell viability ([2]; SVG p12, 72 h assay, aged in the medium for 24 h, not observed in T98G): increase in cell viability

CC(C)c1cc(C(C)C)c(C(C)C)c(O)c1O [TIPCATH2, 3,4,6-tri-iso-propyl catechol]
IC50 [1, 3]: 54 ± 7 µM

N.N.[Cl][Pt][Cl] [cisplatin]
IC50 ([1]; fresh solutions added to cells within 1 min (A), read-out: IC50 (T98G), fresh solutions (A)): 31 ± 1 µM
IC50 ([2]; fresh solutions added to cells within 1 min (A), read-out: IC50 (SVG p12), fresh solutions (A)): 6.1 ± 0.4 µM
